According to paper PMC3116712 (ACS medicinal chemistry letters, 2011):

Columns and labels:
A/M2 S31N mutant = A/M2 S31N mutant (Influenza A virus, UniProt P0DOF5, S31N); assay type: cell-based
A/M2-V27A mutant channel = A/M2-V27A mutant channel (Influenza A virus, UniProt P0DOF5, V27A); assay type: cell-based

| SMILES | inhibitory effect on S31N mutant (in words) (A/M2 S31N mutant) | inhibitory effect on V27A mutant (in words) (A/M2-V27A mutant channel) | percentage inhibition against V27A mutant of A/M2 (A/M2-V27A mutant channel; 100 µM) |
| --- | --- | --- | --- |
| Cl.NC(CO)C12CC3CC(CC(C3)C1)C2 (stereo not drawn) [Compound 27] | no inhibitory effect | no inhibitory effect |  |
| Cl.NC12CC3CC(CC(C3)C1)C2 [Amantadine, reference compound] |  |  | 0% |
